Measured values taken from PubChem BioAssay AID2060604 (Molecular Pharmacology Branch, DTP, NCI, 2025).
Where “and” joins values, the source holds several entries; their conditions need not be identical. Identical values can stand only once. One block for each compound: values may come before it.

Test system: 379773-124-R-J2-PDC complex spheroids, viability % test/control
Test: Anticancer human tumor 379773-124-R-J2-PDC patient-derived endometrial carcinoma cell line growth inhibition [CLK]
Conditions: for viability, T/C: stronger effect = lower value
From the text: A high-throughput screen of multi-cell type tumor spheroids was designed to identify active combinations of […] and targeted small molecules. Complex spheroids include a stromal component modeled by human endothelial cells (HUVEC) and fibroblasts modeled by human mesenchymal stem cells (MSCs). The concentration ranges selected for each drug and investigational agent were based upon clinically achievable concentrations if the clinical Cmax of the agent was known.
Compounds. The drugs and investigational agents: cirtuvivint (SM08502; NSC835563), CC-671 (NSC850746), vemurafenib (NSC761431), tapotoclax (NSC804041), sotorasib (NSC818433), adagrasib (NSC831453), MRTX-1133 (NSC836407), BAY2416964 (NSC825713), copanlisib (NSC816437), inavolisib (NSC800729), abemaciclib (NSC768073), osimertinib (NSC779217), entinostat (NSC756642), eltanexor (KPT-8602, NSC794443), venetoclax (NSC766270), ceralasertib (NSC777638), bortezomib (NSC756655), olaparib (NSC753686), talazoparib (NSC767125), alisertib (NSC759677), peposertib (NSC802822), gemcitabine (NSC613327), 5-fluorouracil (NSC19893), SN-38 (NSC673596), oxaliplatin (NSC266046), paclitaxel (NSC125973), and doxorubicin (NSC123127), were obtained from the National Cancer Institute (NCI) Developmental Therapeutics Program Chemical Repository. The FDA-approved anticancer drug set is available from the Developmental Therapeutics Program at https://dtp.cancer.gov/organization/dscb/obtaining/available plates.htm. […] The stock solutions were prepared in dimethyl sulfoxide (DMSO, Sigma-Aldrich, St. Louis, MO, cat. D2650), except for the platinum complexes which were prepared in saline (Quality Biological, Gaithersburg, MD, cat. 114-055-101), at 800-fold the tested concentration and stored at -70 degrees C prior to their use. All drugs and investigational agents were tested over a range starting from a high concentration at or near the clinical Cmax and decreasing in half-log increments. If the clinical Cmax for an agent had not been determined, the highest concentration tested was 10 microM.
Cell Culture. All cells were maintained in an incubator at 37 degrees C and 5% CO2 with 95% humidity. The PDC lines were cultured according to standard operating procedures established by the NCI PDMR. Briefly, all PDCs were thawed and cultured in Matrigel-coated flasks prepared with a working solution of 1X Ham's F-12 nutrient mix, without supplementation (Invitrogen, Waltham, MA, cat. 11765054), 100 U/mL penicillin-streptomycin (Invitrogen, cat. 15140122), and 2.5% Matrigel (Corning Inc., Corning, NY, cat. 354248) for the first three passages. The 947758-054-R-J2-PDC line was cultured in 6B/Colon 1A media, which includes advanced DMEM/F-12 (Thermo Fisher Scientific, cat. 12634028), 10 mM HEPES (Thermo Fisher Scientific, cat. 15630080), 1X GlutaMAX supplement (Thermo Fisher Scientific, cat. 35050061), 0.1 mg/mL primocin (InvivoGen, cat. ant-pm-2), 10% defined fetal bovine serum, heat inactivated (HyClone Laboratories Inc., cat. SH30070.03HI), 1.25 mM N-Acetyl-L-cysteine (Sigma-Aldrich, cat. A9165), 10 mM nicotinamide (Sigma-Aldrich, cat. N0636), 1X B-27 supplement (Thermo Fisher Scientific, cat. 17504044), 1X N-2 supplement (Thermo Fisher Scientific, cat. 17502048), and 10 microM Y-27632 dihydrochloride (Tocris Bioscience, cat. 1254). The 876862-298-R-J1-PDC was cultured in 6E media, which includes all 6B/Colon 1A media components plus 50% L-WRN conditioned media (ATCC, cat. CRL-3276), 50 ng/mL recombinant human EGF recombinant protein (hEGF; Thermo Fisher Scientific, cat. PHG0311), 10 ng/mL recombinant human fibroblast growth factor 10 (hGFG-10; PeproTech, cat. 100-26), 1 ng/mL recombinant human fibroblast growth factor 2 (hFGF-2; PeproTech, cat. 100-18B), and 1 µM prostaglandin E2 (PGE2; Tocris, cat. 2296). The 227483-062-R1-J1-PDC line was cultured in Panc media, containing all 6E components except hFGF-2, with the addition of 500 nM SB-431542 (Selleckchem, cat. S1067) and 10 nM gastrin (Tocris, cat. 3006). […]

[1] = curve of first compound, second compound 0.0316 µM
[2] = curve of first compound, second compound 0.1 µM
[3] = curve of first compound, second compound 0.316 µM
[4] = curve of first compound, second compound 1 µM
[5] = curve of first compound, second compound 3.16 µM
[6] = curve of first compound, second compound 10 µM
[7] = second compound 0.0316 µM, first compound 0.0316 µM
[8] = second compound 0.0316 µM, first compound 0.1 µM
[9] = second compound 0.0316 µM, first compound 0.316 µM
[10] = second compound 0.0316 µM, first compound 1 µM
[11] = second compound 0.0316 µM, first compound 3.16 µM
[12] = second compound 0.0316 µM, first compound 10 µM
[13] = second compound 0.1 µM, first compound 0.0316 µM
[14] = second compound 0.1 µM, first compound 0.1 µM
[15] = second compound 0.1 µM, first compound 0.316 µM
[16] = second compound 0.1 µM, first compound 1 µM
[17] = second compound 0.1 µM, first compound 3.16 µM
[18] = second compound 0.1 µM, first compound 10 µM
[19] = second compound 0.316 µM, first compound 0.0316 µM
[20] = second compound 0.316 µM, first compound 0.1 µM
[21] = second compound 0.316 µM, first compound 0.316 µM
[22] = second compound 0.316 µM, first compound 1 µM
[23] = second compound 0.316 µM, first compound 3.16 µM
[24] = second compound 0.316 µM, first compound 10 µM
[25] = second compound 1 µM, first compound 0.0316 µM
[26] = second compound 1 µM, first compound 0.1 µM
[27] = second compound 1 µM, first compound 0.316 µM
[28] = second compound 1 µM, first compound 1 µM
[29] = second compound 1 µM, first compound 3.16 µM
[30] = second compound 1 µM, first compound 10 µM
[31] = second compound 3.16 µM, first compound 0.0316 µM
[32] = second compound 3.16 µM, first compound 0.1 µM
[33] = second compound 3.16 µM, first compound 0.316 µM
[34] = second compound 3.16 µM, first compound 1 µM
[35] = second compound 3.16 µM, first compound 3.16 µM
[36] = second compound 3.16 µM, first compound 10 µM
[37] = second compound 10 µM, first compound 0.0316 µM
[38] = second compound 10 µM, first compound 0.1 µM
[39] = second compound 10 µM, first compound 0.316 µM
[40] = second compound 10 µM, first compound 1 µM
[41] = second compound 10 µM, first compound 3.16 µM
[42] = second compound 10 µM, first compound 10 µM
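Also: compound exposure lasted seven days before the viability readout.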
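For viability, T/C in this document: 100% = DMSO vehicle control wells.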

Compound: Nc1ccccc1NC(=O)c1ccc(CNC(=O)OCc2cccnc2)cc1 + CN1CCN(c2cc(C(=O)Nc3cc4cc(-c5cnn(C)c5)ccc4cn3)ccn2)CC1
IC50 [1]: 3.11 µM | IC50 [2]: 1.97 µM | IC50 [3]: < 0.0316 µM | IC50 [4]: < 0.0316 µM | IC50 [5]: < 0.0316 µM | IC50 [6]: < 0.0316 µM | viability, T/C [7]: 89.8% | viability, T/C [8]: 92.6% | viability, T/C [9]: 113% | viability, T/C [10]: 104% | viability, T/C [11]: 49.1% | viability, T/C [12]: 10.4% | viability, T/C [13]: 82.2% | viability, T/C [14]: 81% | viability, T/C [15]: 111% | viability, T/C [16]: 66.2% | viability, T/C [17]: 36% | viability, T/C [18]: 5.29% | viability, T/C [19]: 21.2% | viability, T/C [20]: 27.6% | viability, T/C [21]: 17.5% | viability, T/C [22]: 13.2% | viability, T/C [23]: 4.61% | viability, T/C [24]: 0.06% | viability, T/C [25]: 0.13% | viability, T/C [26]: 0.25% | viability, T/C [27]: 0.3% | viability, T/C [28]: 1.14% | viability, T/C [29]: 0.04% | viability, T/C [30]: 0.92% | viability, T/C [31]: 0.08% | viability, T/C [32]: 0.1% | viability, T/C [33]: 0.08% | viability, T/C [34]: 1.25% | viability, T/C [35]: 0.1% | viability, T/C [36]: 0.09% | viability, T/C [37]: 0.15% | viability, T/C [38]: 0.81% | viability, T/C [39]: 0.62% | viability, T/C [40]: 1.15% | viability, T/C [41]: 1.4% | viability, T/C [42]: 0.15%

IC50 (curve of compound): > 10 µM
Compound: O=c1[nH]cc(F)c(=O)[nH]1
viability, T/C (compound 0.0316 µM): 90.7% and 97.5% | viability, T/C (compound 0.1 µM): 107% and 93.2% | viability, T/C (compound 0.316 µM): 91.5% and 98.6% | viability, T/C (compound 1 µM): 97.5% and 100% | viability, T/C (compound 3.16 µM): 70.2% and 81.4% | viability, T/C (compound 10 µM): 50.9% and 73.7%

Compound: O=c1[nH]cc(F)c(=O)[nH]1 + CN1CCN(c2cc(C(=O)Nc3cc4cc(-c5cnn(C)c5)ccc4cn3)ccn2)CC1
IC50 [1]: > 10 µM | IC50 [2]: > 10 µM | IC50 [3]: < 0.0316 µM | IC50 [4]: < 0.0316 µM | IC50 [5]: < 0.0316 µM | IC50 [6]: < 0.0316 µM | viability, T/C [7]: 92.2% | viability, T/C [8]: 86.8% | viability, T/C [9]: 93.4% | viability, T/C [10]: 82.3% | viability, T/C [11]: 74.5% | viability, T/C [12]: 56.2% | viability, T/C [13]: 82% | viability, T/C [14]: 82.2% | viability, T/C [15]: 78.4% | viability, T/C [16]: 67.4% | viability, T/C [17]: 70.6% | viability, T/C [18]: 54.1% | viability, T/C [19]: 24.9% | viability, T/C [20]: 23.4% | viability, T/C [21]: 28.6% | viability, T/C [22]: 22.5% | viability, T/C [23]: 19.1% | viability, T/C [24]: 14.8% | viability, T/C [25]: 0.12% | viability, T/C [26]: 0.11% | viability, T/C [27]: 0.1% | viability, T/C [28]: 0.08% | viability, T/C [29]: 1.26% | viability, T/C [30]: 0.11% | viability, T/C [31]: 0.39% | viability, T/C [32]: 1.04% | viability, T/C [33]: 0.08% | viability, T/C [34]: 1.36% | viability, T/C [35]: 0.05% | viability, T/C [36]: 0.94% | viability, T/C [37]: 1.85% | viability, T/C [38]: 1.37% | viability, T/C [39]: 0.12% | viability, T/C [40]: 0.11% | viability, T/C [41]: 0.1% | viability, T/C [42]: 0.68%

Compound: CCc1c2c(nc3ccc(O)cc13)-c1cc3c(c(=O)n1C2)COC(=O)[C@]3(O)CC + CN1CCN(c2cc(C(=O)Nc3cc4cc(-c5cnn(C)c5)ccc4cn3)ccn2)CC1
IC50 [1]: < 0.00316 µM | IC50 [2]: < 0.00316 µM | IC50 [3]: < 0.00316 µM | IC50 [4]: < 0.00316 µM | IC50 [5]: < 0.00316 µM | IC50 [6]: < 0.00316 µM | viability, T/C (second compound 0.0316 µM, first compound 0.00316 µM): 14.1% | viability, T/C (second compound 0.0316 µM, first compound 0.01 µM): 8.12% | viability, T/C [7]: 3.67% | viability, T/C [8]: 2.7% | viability, T/C [9]: 0.99% | viability, T/C [10]: 0.98% | viability, T/C (second compound 0.1 µM, first compound 0.00316 µM): 10.7% | viability, T/C (second compound 0.1 µM, first compound 0.01 µM): 7.87% | viability, T/C [13]: 5.68% | viability, T/C [14]: 1.93% | viability, T/C [15]: 1% | viability, T/C [16]: 0.47% | viability, T/C (second compound 0.316 µM, first compound 0.00316 µM): 10.6% | viability, T/C (second compound 0.316 µM, first compound 0.01 µM): 9.07% | viability, T/C [19]: 3.15% | viability, T/C [20]: 1.65% | viability, T/C [21]: 0.34% | viability, T/C [22]: 0.08% | viability, T/C (second compound 1 µM, first compound 0.00316 µM): 0.11% | viability, T/C (second compound 1 µM, first compound 0.01 µM): 0.18% | viability, T/C [25]: 0.1% | viability, T/C [26]: 0.34% | viability, T/C [27]: 0.05% | viability, T/C [28]: 0.05% | viability, T/C (second compound 3.16 µM, first compound 0.00316 µM): 0.07% | viability, T/C (second compound 3.16 µM, first compound 0.01 µM): 0.08% | viability, T/C [31]: 0.13% | viability, T/C [32]: 0.73% | viability, T/C [33]: 0.09% | viability, T/C [34]: 0.08% | viability, T/C (second compound 10 µM, first compound 0.00316 µM): 0.45% | viability, T/C (second compound 10 µM, first compound 0.01 µM): 0.11% | viability, T/C [37]: 0.2% | viability, T/C [38]: 1.89% | viability, T/C [39]: 0.75% | viability, T/C [40]: 0.18%
